# Measured values taken from patent publication US8624037B2, “Imidazolidine-2,4-dione derivatives and use thereof as a medicament” (Ipsen Pharma S.A.S., priority 2009, dated 2014).
# Assays:
# LNCaP cells [1] = experiment: Pro- and/or anti-proliferative activity on LNCaP in medium depleted in steroids (WST-1); type: cell-based; conditions: FIG. 1
# Experimental: 2. Antiproliferative Activity on LNCaP in a Medium Depleted in Steroids:
# The pro- and/or anti-proliferative activity of the compounds of the present invention is determined on LNCaP in medium depleted in steroids.
# The LNCaP (ATCC, 1740) line originates from a carcinoma of the prostate expressing the androgen receptor, it is hormone-dependent.
# The maintenance of the LNCaP line is carried out under the usual conditions in RPMI, 10% of foetal calf serum, 2 mM of glutamine, 100 U/ml of penicillin, 0.1 mg/ml of streptomycin and 0.01M HEPES, 1 mM sodium pyruvate, 40% of D-glucose.
# For the study under conditions without steroids, 24 hours before the seeding the culture medium of the cells is eliminated. […]
# The LNCaP line is seeded at 20,000 cells/well in 90 μl of RPMI medium with 10% foetal calf serum depleted in steroids in 96-well plates coated with poly-D-lysine (Biocoat, Costar). • Treatment of the cells: 24 h after seeding, the cells are treated with 10 μl/well of compound diluted in the culture medium. […] The cells are incubated for 144 h at 37° C., 5% CO2. • Reading: After incubation for 6 days, 10 μL of cell proliferation reagent WST-1 (Roche ref 1644807) is added to each well. […]
# androgen receptor = molecular target: T1, androgen receptor (Homo sapiens, UniProt P10275, T878A); type: cell-based; conditions: LNCaP cells, 72 hours after treatment, western blot, FIGS. 2 to 10
# T1 construct: primary antibody directed against the androgen receptor (AR441, sc-7305, Santa Cruz); host or cells: LNCaP
# Experimental: The cells of the LNCaP line are seeded at a rate of 2.5 millions of cells per 10 cm Petri dish in RPMI, 10% of foetal calf serum, 2 mM of glutamine, 100 U/ml of penicillin, 0.1 mg/ml of streptomycin and 0.01M HEPES, 1 mM of sodium pyruvate, […]. 4 days later, the cells are treated with the compound to be tested. 72 hours after the treatment the cells are lyzed in lysis buffer (50 mM Tris pH 7.4, 150 mM NaCl, 1 mM EDTA, 20 mM NaF, 100 mM Na2VO3, 0.5% of NP40, 1% of Triton X-100, 1 mM EGTA, Pefabloc, protease inhibitor cocktail 11836170001 RocheDiagnostics, Phosphatase inhibitor cocktail set II Calbiochem). The cells are then scrapped and the lysate transferred into QIAshredder tubes (cat No. 79656 Qiagen) for centrifugation at 13,000 rpm for 15 min at 4° C. The supernatant is transferred into QIAshredder tubes for a second centrifugation at 13,000 rpm for 5 min in order to completely eliminate the DNA filaments. The protein concentration is then determined (Bio-Rad DC protein assay kit) and adjusted so as to load the same quantity of proteins per well (10 and 20 per well depending on the experiments). The loading buffer (sample loading buffer 3×ref 7722 Cell signaling technology) with added 1% beta-mercaptoethanol and 50 mM DTT, is added to the samples which are then heated for 10 min at 90° C. The samples are deposited under a volume of 20 μl on NuPAGE 4-12% Bis-Tris gels (cat No. NP0322BOX, Invitrogen). The migration takes place in MOPS buffer (Invitrogen) and is carried out for 1 hour at 180V. The proteins are transferred onto a nitrocellulose membrane (Hybond ECL RPN78D, GE Healthcare) under semi-dry conditions, in the presence of transfer buffer (NP0006-1, Invitrogen) over 45 min at 15V. The membrane is then blocked for 1 hour in blocking buffer (Non-fat dry milk, cat 170-6404, Biorad) at 5% in Tris Buffer saline (TBS) 0.1% Tween 20. Then it is incubated at 4° C. overnight in the presence of primary antibody directed against the androgen receptor (AR441, sc-7305, Santa Cruz) diluted to 1/2000th in blocking buffer as well as in the presence of primary antibody directed against GAPDH (Cat.MAB374, Millipore) diluted to 1/20,000th in blocking buffer (monitoring of protein load). The membrane is then washed 3 times in washing buffer (TBS, 0.1% Tween 20). The membrane is then incubated in the presence of secondary anti-immunoglobulin mouse antibody coupled with HRP (Goat anti-mouse IgG-HRP, sc 2031, Santa Cruz) diluted to 1/5000th in blocking buffer. The membrane is then washed 3 times in washing buffer.
# LNCaP cells [2] = experiment: Anti-proliferative activity on LNCaP in complete medium (WST-1); type: cell-based; conditions: Homo sapiens, 144 h, 144 h incubation, WST-1 reading, read-out: IC50 on the LNCaP cells in culture (concentration inhibiting the cell proliferation by 50%)
# Experimental: 1. Anti-Proliferative Activity on LNCaP in Complete Medium
# The anti-proliferative activity of the compounds of the present invention is determined on LNCaP in complete medium by applying the following experimental procedure:
# The LNCaP cell type (ATCC, 1740) originates from a prostate carcinoma expressing the androgen receptor, this line is hormone-dependent.
# Maintenance of the LNCaP line is carried out in complete culture medium: RPMI, 10% of foetal calf serum, 2 mM glutamine, 100 U/ml penicillin, 0.1 mg/ml of streptomycin and 0.01M HEPES, 1 mM sodium pyruvate, 40% of D-glucose. • Seeding the plates:
# The LNCaP line is seeded at 20,000 cells/well in […] of complete medium in 96-well plates coated with poly-D-lysine (Biocoat, Costar). • Treatment of the cells: 24 h after the seeding, the cells are treated with 10 μl/well of compound diluted in the culture medium. The concentrations used are the following: 1 nM/10/30/100/300/1000/3000/10,000/100,000 nM. The cells are incubated for 144 h at 37° C., 5% CO2. • Reading: After incubation for 6 days, 10 μL of the “WST-1 cell proliferation” reagent (Roche ref 1644807) is added to each well. After incubation for 2 hours at 37° C., 5% CO2, the absorbance at 450 nm is measured by spectrophotometry (Envision, Perkin Elmer). • Results: The experiments are carried out in duplicate and the best compounds are tested twice. A concentration value inhibiting the cell proliferation by 50% (IC50) is calculated.
# LNCaP cells [3] = conditions: medium depleted in steroids; stated 'as described previously' (Veldscholte 1992); cited from earlier work
# T1 sequence (P10275 whole entry T878A): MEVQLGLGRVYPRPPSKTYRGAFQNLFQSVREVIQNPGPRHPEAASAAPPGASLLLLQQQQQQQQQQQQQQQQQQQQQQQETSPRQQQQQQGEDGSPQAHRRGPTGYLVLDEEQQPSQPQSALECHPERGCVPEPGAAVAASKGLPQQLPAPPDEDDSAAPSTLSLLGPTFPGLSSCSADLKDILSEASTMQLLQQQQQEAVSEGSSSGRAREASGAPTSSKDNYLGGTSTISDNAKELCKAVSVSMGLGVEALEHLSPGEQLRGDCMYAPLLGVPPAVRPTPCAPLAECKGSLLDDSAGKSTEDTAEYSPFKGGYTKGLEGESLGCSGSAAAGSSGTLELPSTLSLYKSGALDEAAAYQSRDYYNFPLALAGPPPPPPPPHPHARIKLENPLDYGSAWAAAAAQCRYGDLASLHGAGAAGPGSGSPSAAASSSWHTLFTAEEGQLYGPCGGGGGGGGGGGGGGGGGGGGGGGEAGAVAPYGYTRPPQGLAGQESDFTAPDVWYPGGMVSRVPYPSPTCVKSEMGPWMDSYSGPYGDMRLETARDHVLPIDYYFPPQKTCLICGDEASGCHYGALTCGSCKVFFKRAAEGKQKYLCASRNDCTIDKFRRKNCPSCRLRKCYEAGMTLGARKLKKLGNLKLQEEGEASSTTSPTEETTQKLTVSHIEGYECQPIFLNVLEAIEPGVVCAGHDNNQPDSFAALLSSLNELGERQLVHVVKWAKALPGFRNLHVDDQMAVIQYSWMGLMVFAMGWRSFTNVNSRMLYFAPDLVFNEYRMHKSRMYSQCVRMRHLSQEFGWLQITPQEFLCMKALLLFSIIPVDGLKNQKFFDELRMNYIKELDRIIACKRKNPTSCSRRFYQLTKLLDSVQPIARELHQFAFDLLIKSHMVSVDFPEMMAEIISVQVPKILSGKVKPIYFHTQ
structure (smiles),measurement,setting,value
"CC1(C)C(=O)N(c2ccc([N+](=O)[O-])c(C(F)(F)F)c2)C(=O)N1CCCCCN1C(=O)N(c2ccc([N+](=O)[O-])c(C(F)(F)F)c2)C(=O)C1(C)C [Example 2, 1,1′-pentane-1,5-diylbis{5,5-dimethyl-3-[4-nitro-3-(trifluoromethyl)phenyl]imidazolidine-2,4-dione}]",inhibitory activity on cell proliferation of LNCaP cultured in medium depleted in steroids,LNCaP cells [1],visible inhibitory activity at low concentrations
same,effect on protein expression of the androgen receptor,androgen receptor,reduce protein expression of the androgen receptor
"CC1(C)C(=O)N(c2ccc([N+](=O)[O-])c(C(F)(F)F)c2)C(=O)N1CCCCCCCN1C(=O)N(c2ccc([N+](=O)[O-])c(C(F)(F)F)c2)C(=O)C1(C)C [Example 4, 1,1′-heptane-1,7-diylbis{5,5-dimethyl-3-[4-nitro-3-(trifluoromethyl)phenyl]imidazolidine-2,4-dione}]",IC50,LNCaP cells [2],< 1500 nM
"CC1(C)C(=O)N(c2ccc([N+](=O)[O-])c(C(F)(F)F)c2)C(=O)N1CCOCCN1C(=O)N(c2ccc([N+](=O)[O-])c(C(F)(F)F)c2)C(=O)C1(C)C [Example 7, 1,1′-(oxydiethane-2,1-diyl)bis{5,5-dimethyl-3-[4-nitro-3-(trifluoromethyl)-phenyl]imidazolidine-2,4-dione}]",effect on protein expression of the androgen receptor,androgen receptor,reduce protein expression of the androgen receptor
"Cc1cc(N2C(=O)N(CCCCCN3C(=O)N(c4ccc([N+](=O)[O-])c(C)c4)C(=O)C3(C)C)C(C)(C)C2=O)ccc1[N+](=O)[O-] [Example 10, 1,1′-pentane-1,5-diylbis[5,5-dimethyl-3-(3-methyl-4-nitrophenyl)imidazolidine-2,4-dione]]",IC50,LNCaP cells [2],< 1500 nM
same,effect on protein expression of the androgen receptor,androgen receptor,reduce protein expression of the androgen receptor
"COc1cc(N2C(=O)N(CCCCCN3C(=O)N(c4ccc([N+](=O)[O-])c(OC)c4)C(=O)C3(C)C)C(C)(C)C2=O)ccc1[N+](=O)[O-] [Example 13, 1,1′-pentane-1,5-diylbis[3-(3-methoxy-4-nitrophenyl)-5,5-dimethyl-imidazolidine-2,4-dione]]",IC50,LNCaP cells [2],< 1500 nM
"COC(=O)Nc1ccc(N2C(=O)N(CCCCCN3C(=O)N(c4ccc(NC(=O)OC)c(C)c4)C(=O)C3(C)C)C(C)(C)C2=O)cc1C [Example 14, dimethyl{pentane-1,5-diylbis[(4,4-dimethyl-2,5-dioxoimidazolidine-3,1-diyl)(2-methyl-4,1-phenylene)]}biscarbamate]",IC50,LNCaP cells [2],< 1500 nM
"Cc1cc(N2C(=O)N(CCCCCN3C(=O)N(c4ccc(C#N)c(C)c4)C(=O)C3(C)C)C(C)(C)C2=O)ccc1C#N [Example 15, 4,4′-[pentane-1,5-diylbis(4,4-dimethyl-2,5-dioxoimidazolidine-3,1-diyl)]bis(2-methylbenzonitrile)]",effect on protein expression of the androgen receptor,androgen receptor,reduce protein expression of the androgen receptor
"CC1(C)C(=O)N(c2ccc(C#N)c(Cl)c2)C(=O)N1CCCCCN1C(=O)N(c2ccc(C#N)c(Cl)c2)C(=O)C1(C)C [Example 16, 4,4′-[pentane-1,5-diylbis(4,4-dimethyl-2,5-dioxoimidazolidine-3,1-diyl)]bis(2-chlorobenzonitrile)]",IC50,LNCaP cells [2],< 1500 nM
same,effect on protein expression of the androgen receptor,androgen receptor,reduce protein expression of the androgen receptor
"CC1(C)C(=O)N(c2ccc([N+](=O)[O-])c(C(F)(F)F)c2)C(=O)N1C/C=C\CN1C(=O)N(c2ccc([N+](=O)[O-])c(C(F)(F)F)c2)C(=O)C1(C)C [Example 19, 1,1′-(2Z)-but-2-ene-1,4-diylbis{5,5-dimethyl-3-[4-nitro-3-(trifluoromethyl)phenyl]imidazolidine-2,4-dione}]",inhibitory activity on cell proliferation of LNCaP cultured in medium depleted in steroids,LNCaP cells [1],visible inhibitory activity at low concentrations
same,effect on protein expression of the androgen receptor,androgen receptor,reduce protein expression of the androgen receptor
"CC1(C)C(=O)N(c2ccc(C#N)c(C(F)(F)F)c2)C(=O)N1C/C=C\CN1C(=O)N(c2ccc(C#N)c(C(F)(F)F)c2)C(=O)C1(C)C [Example 21, 4,4′-[(2Z)-but-2-ene-1,4-diylbis(4,4-dimethyl-2,5-dioxoimidazolidine-3,1-diyl)]bis[2-(trifluoromethyl)benzonitrile]]",effect on protein expression of the androgen receptor,androgen receptor,reduce protein expression of the androgen receptor
"CC1(C)C(=O)N(c2ccc(C#N)c(C(F)(F)F)c2)C(=O)N1C[C@@H]1O[C@@H]1CN1C(=O)N(c2ccc(C#N)c(C(F)(F)F)c2)C(=O)C1(C)C [Example 22, 4,4′-{(2R,3S)-oxirane-2,3-diylbis[methanediyl(4,4-dimethyl-2,5-dioxoimidazolidine-3,1-diyl)]}bis[2-(trifluoromethyl)benzonitrile]]",effect on protein expression of the androgen receptor,androgen receptor,reduce protein expression of the androgen receptor
CC1(C)NC(=O)N(c2ccc([N+](=O)[O-])c(C(F)(F)F)c2)C1=O [nilutamide],agonist / inhibitory activity of nilutamide on LNCaP proliferation,LNCaP cells [3],"agonist activity at low concentrations, then an inhibitory activity at high concentrations"
